Assays:
HIV-1IIIB = assay: HIV-1 antiviral assay, CPE reduction (MTS); conditions: peptide 10 micrograms per ml; 6 days post-infection
CEM-SS cells = assay: HIV-1 assay cytotoxicity, MTS cell viability; conditions: peptide 10 micrograms per ml
A549 cells [1] = assay: Propidium iodide cell cycle assay; type: cell-based, human; conditions: 10 micrograms per ml, 24 hours
Description: Human A549 cells (carcinomic human alveolar basal epithelial cells) were utilized in the experiments employing the Propidium iodide cell cycle assay. The eukaryotic cell cycle is a series of events that take place in a cell leading to its replication.
Propidium iodide is an intercalating agent and a fluorescent molecule that can be used to stain DNA. Cells were incubated for 24 hours with test peptide—10 micrograms per ml—or left untreated. After that cells were trypsinized, suspended in medium+10% FCS, centrifuged (1000 rpm, 5 min), and the cell pellet resuspended in PBS (1 ml). The cells were pipetted into 2.5 ml absolute EtOH (final concentration approx. 70%) and incubated on ice for 15 min. Thereafter, cells were pelleted at 1500 rpm for 5 min and resuspended in Propidium iodide solution in PBS. After incubation for 40 min at 37° C., cells were analyzed in the FACS.

HUVEC [2] = assay: Endothelial tube formation assay; type: cell-based, human; conditions: 10 micrograms per ml, 20 hours
Description: The endothelial tube formation assay is based on the ability of endothelial cells to form three-dimensional capillary-like tubular structures when cultured on a gel of basement membrane extract. The endothelial tube formation assay represents a powerful model for studying inhibition and induction of angiogenesis. Pre-labeled HUVEC with Calcein AM were seeded in a 96-well culture plate coated with extracellular metrix (Chemicon international Cat. ECM625) and treated with test peptide—10 micrograms per ml—in full growth medium. Positive control was vehicle only. The endothelial cells were allowed to form tubes foe 20 hours and were then examined under an inverted fluorescent microscope. Duplicate wells for each treatment were photographed and quantitatevily analyzed for an average tubule length using image analysis software ImageProPlus. Raw data were expressed as average tubule lenghs in pixels±standard deviation. Statistic p values were computed using the Student's t-test.

HCMV strain AD169 = assay: HCMV plaque reduction assay; type: cell-based; conditions: HCMV in MRC-5 cells; peptide 10 micrograms per ml; 7-10 days
From the text: (§1) Cells were split twic a week 1:2.
Ganciclovir was used as positive control.

A549 cells [3] = assay: Apoptosis induction assay (Annexin-5); type: cell-based, human; conditions: 10 micrograms per ml, 24 hours
From the text: Human A549 cells (carcinomic human alveolar basal epithelial cells) were utilized in the experiments employing the Annexin-5 apoptosis assay. Annexin-5 is a member of a highly conserved protein family that binds acidic phospholipids in a calcium-dependent manner. […] Phosphatidylserine is translocated from the inner side of the plasma membrane to the outer layer when cells undergo death by apoptosis or cell necrosis and serves as a signal by which cell destined for death are recognized by phagocytes. Test peptide—10 micrograms per ml—were exposed for 24 hours to the A549 cells before they were analyzed for signs of apoptosis.

Pseudomonas aeruginosa = Pseudomonas aeruginosa assay; type: cell-based; conditions: Pseudomonas aeruginosa growth; peptide 10 micrograms per ml
Description: (§2) The antibacterial assay was conducted using clear, U-bottom 96-well microtiter plates. Cation-adjusted Mueller-Hinton Broth (MHB) was used for testing Pseudomonas aeruginosa. The peptide of the invention (0.1 ml of each—10 micrograms per ml—) was dispensed into wells in duplicate. Then the wells were inoculated with 5×10^5 CFU/mL Pseudomonas aeruginosa in 0.1 ml volume. For control purposes, each plate included 4 wells containing media without bacterial inoculum and 4 wells containing medium with inoculum but without peptide. The plates were incubated for 12 h at 37° C., and read visually 18-24 hours post-incubation. Growth control of Pseudomonas aeruginosa was examined first to determine adequacy of media preparations and growth conditions. Acceptable growth is defined as ≧2 mm wide button of cells at the bottom of each sample well, or obvious turbidity in the culture supernatant. Test wells were examined and scored as positive/negative for activity. A positive score for activity is based on complete inhibition of macroscopic growth of the test Pseudomonas aeruginosa.

MRSA = assay: Methicillin resistant Staphylococcus aureus (MRSA) assay; type: cell-based; conditions: MRSA growth; peptide 10 micrograms per ml
Description: as §2, with “MRSA.” for “Pseudomonas aeruginosa.”, “MRSA” for “Pseudomonas aeruginosa”, “2” for “≧2”

[4] = tested on: Ovalbumin-restimulated spleen cells; assay: Th1/Th2 cytokine profiling assay; type: cell-based, Balb/c mice; conditions: 10 micrograms per ml; 72 hours
From the text: The Balb/c mice (originated in 1923, it is a popular strain and is used in many different research disciplines. Also classified as an inbred from the production of 20 or more successive brother-sister matings, the Balb/c mouse is albino and small in size) were immunized on Days 1, 15, and 29 with Ovalbumin (Ovalbumin is the main protein found in egg white, commonly used to stimulate an immunological reaction in test animals) in PBS (5 micrograms/injection). On day 50, spleens of the mice were harvested (3 weeks after last boost with Ovalbumin). Cells were cultured (2×10^5/well in triplicate) and incubated with culture medium or test peptide—10 micrograms per ml—for 30 min. Thereafter, additional Ovalbumin was added to the cells at 10 micrograms/ml for in vitro restimulation of the cells. 72 hours later, cell supernatants were harvested and assayed using the Becton Dickinson Mouse Th1/Th2 Cytokine CBA Kit. This kit can be used to measure Interleukin-2 (IL-2), Interleukin-4 (IL-4), Interleukin-5 (IL-5), Interferon-γ (IFN-γ), and Tumor Necrosis Factor-α (TNF-α) protein levels in a single sample. The kit performance has been optimized for analysis of physiologically relevant concentrations (pg/ml levels) of specific cytokine proteins in tissue culture supernatants and serum samples.

[5] = tested on: PHA-stimulated PBMC (T cell proliferation); assay: T cell proliferation assay; type: cell-based, human; conditions: 3H-thymidine incorporation; 10 micrograms per ml
Description: Human Peripheral Blood Mononuclear Cells (PBMC) were obtained from normal human donors. The T cell proliferation was induced by stimulation of the cells with the T cell mitogen phytohemagglutinin (PHA), either in the absence (positive proliferation control), or in the presence of test peptide—10 micrograms per ml—to examine their effects on the T cell proliferating response. 10^5/well PBMC were plated in 96-well microtiter plates and assayed in duplicate with the peptide. Cell cultures were incubated at 37° C. for 3 days in a 5% CO2 incubator and were thereafter pulsed with 1 microCi/well ^3H-thymidine for additional 12 hours of culture. At the end of incubation time, the plates were harvested and the cells counted by liquid scintillation for the incorporation of ^3H-thymidine as a measure of T cell proliferation.

A549 cells [6] = assay: Apoptosis prevention assay (Annexin-5, C2 ceramide); type: cell-based, human; conditions: A549 cells pretreated 30 min; 10 micrograms per ml
From the text: Human A549 cells (carcinomic human alveolar basal epithelial cells) were utilized in the experiments employing the Annexin-5 apoptosis assay. Annexin-5 is a member of a highly conserved protein family that binds acidic phospholipids in a calcium-dependent manner. […] Phosphatidylserine is translocated from the inner side of the plasma membrane to the outer layer when cells undergo death by apoptosis or cell necrosis and serves as a signal by which cell destined for death are recognized by phagocytes. A549 cells were pretreated for 30 min with test peptide—10 micrograms per ml—followed by the exposure to C2 ceramide. Ceramide mediates cell apoptosis through the activation of the mitogen activating protein kinase (MAPK) and the stress activated kinase (JNK/SAPK). C2 ceramide is a synthetic, membrane soluble analog of ceramide.

Streptococcus pneumoniae = Streptococcus pneumoniae assay; type: cell-based; conditions: Streptococcus pneumoniae growth; peptide 10 micrograms per ml
Description: as §2, with “Streptococcus pneumoniae.” for “Pseudomonas aeruginosa.”, “Streptococcus pneumoniae” for “Pseudomonas aeruginosa”

HUVEC [7] = assay: Endothelial cell migration assay; type: cell-based, human; conditions: 10 micrograms per ml, 22 hours
Description: Endothelial cell migration is a prerequisite for the process of neo-vascularization or angiogenesis which is crucial for on-site recruitment of blood vessel formation. Primary Human endothelial cells (HUVEC) were seeded in insert chambers with 3 micrometer pore size of multi-transwell plate for 6 hours at 37° C. in Endothelial Cell Basal Medium (EBM) supplemented with 0.1% bovine serum albumin. Thereafter, designated concentration of test peptide—10 micrograms per ml—was added in duplicate wells. The endothelia were allowed to migrate for 22 hours at 37° C., then, migrated cells were fixed and stained with Hoechst 33342 dye. Images of 3 fields per insert were taken and the number of migrated cells per field were quantified using the ImageProPlus software. Data were analyzed for the average number of the migrated cells and standard deviation of six data points for each treatment condition. Active test peptide against HUVEC migration was determined based on 50% inhibition of migrated cells as compared with the control. Statistic p values were computed using the Student's t-test.

HepG2-2.2.15 cells = assay: HBV assay cytotoxicity, dye uptake cell viability; type: cell-based; conditions: peptide 10 micrograms per ml
MRC-5 cells = assay: HCMV assay cytotoxicity testing, CellTiter 96; type: cell-based, human; conditions: 6 days incubation
Description: as §1
For cytotxicity testing, MRC-5 cells were seeded at 2,500 cells/well in 96 well plates using growth medium. […] The following day, peptide was added and tested in duplicates. After a 6 days incubation period, cell viability was measured using CellTiter 96 Solution (Promega). Plates were incubated for additional 4 hours at 37° C.

| SMILES | % CPE reduction in HIV-1 infected CEM-SS cells (HIV-1IIIB) | % Cell viability (CEM-SS cells) | Cell cycle analysis G2/M (A549 cells [1]) | % inhibition of tube formation (HUVEC [2]) | % plaque reduction (HCMV strain AD169) | % of induction (A549 cells [3]) | % inhibition (Pseudomonas aeruginosa) | % inhibition (MRSA) | IFNγ spleen cells; TH1 response (% of control) [4] | % of PHA induced control [5] | % prevention of ceramide induced apoptosis (A549 cells [6]) | % inhibition (Streptococcus pneumoniae) | % inhibition of migration (HUVEC [7]) | % Cell viability (HepG2-2.2.15 cells) | % Cell viability (MRC-5 cells) |
| --- | --- | --- | --- | --- | --- | --- | --- | --- | --- | --- | --- | --- | --- | --- | --- |
| Cc1cn([C@H]2C[C@H](N=[N+]=[N-])[C@@H](CO)O2)c(=O)[nH]c1=O [AZT, reference compound] | 99% | 97% | – | – | – | – | – | – | – | – | – | – | – | – | – |
| CC(C)(C)NC(=O)[C@@H]1CN(Cc2cccnc2)CCN1C[C@@H](O)C[C@@H](Cc1ccccc1)C(=O)N[C@H]1c2ccccc2C[C@H]1O [Indinavir] | 100% | – | – | – | – | – | – | – | – | – | – | – | – | – | – |
| C[C@@H](O)[C@@H]1NC(=O)[C@H](CCCCN)NC(=O)[C@@H](Cc2c[nH]c3ccccc23)NC(=O)[C@H](Cc2ccccc2)NC(=O)[C@@H](NC(=O)[C@H](N)Cc2ccccc2)CSSC[C@@H](C(=O)N[C@H](CO)[C@@H](C)O)NC1=O [Octreotide, D-Phe-Cys-Phe-D-Trp-Lys-Thr-Cys-L-threoninol] | 0.0% | 100% | 9.2 | 8% | 0.0% | 2.6% | 0.0% | 0.0% | 56.0 % of control | 100.0% | 0.0% | 100.0% | −24% | 97.8% | 100% |

Reference: US8541364B2, “Use of a octreotide as a therapeutic agent” (Mondobiotech Laboratories AG, priority 2007, dated 2013)
